Data from the OPERA property sets (Mansouri et al. 2018).

| logP | Compound |
| --- | --- |
| 5.7 | CCCCCCCCCNCc1ccc(C)cc1 |
| 0.58 | COS(=O)c1ccc(O)cc1 (stereo not given) |
| 3.51 | CCCCNc1ccc(C(=O)OCCN(C)C)cc1 |
| 3.15 | CC(C)(C)S(=O)(=O)CC(Cc1cccc2ccccc12)C(=O)NC(Cc1cnc[nH]1)C(=O)NC(CC1CCCCC1)C(O)C(O)C1CC1 (stereo not given) |
| 2.14 | CCN(CC)CCOC(=O)c1ccc(N)cc1 |
| 4.12 | CCc1cc(CC(C#N)C#N)cc(CC)c1O |
| 4.19 | COc1ccccc1OCCNCC(O)COc1cccc2[nH]c3ccccc3c12 (stereo not given) |
| 2.75 | CC(C)(C)S(=O)(=O)CC(Cc1ccccc1)C(=O)NC(Cc1cnc[nH]1)C(=O)NC(CC1CCCCC1)C(O)C(O)C1CC1 (stereo not given) |

Further lines, the compound ahead of its results:

| Compound | logP |
| --- | --- |
| O=C1O[C@H]([C@@H](O)CO)C(O)=C1O | -1.85 |
| CN1C(C(=O)Nc2ccccn2)=C(O)c2ccccc2S1(=O)=O | 3.06 |
| CCCc1c2c(c(O)c3c(=O)cc(C(=O)O)oc13)CCCC2 | 5 |
| N[C@@H](Cc1ccccc1)C(=O)O (racemic) | -1.38 |
| N#CC(C#N)Cc1ccc(O)cc1 | 3.08 |
| Cc1cnc(NC(=O)C2=C(O)c3ccccc3S(=O)(=O)N2C)s1 | 3.43 |
| COc1ccc(Cc2nccc3cc(OC)c(OC)cc23)cc1OC | 2.95 |
